# Reference: US20030180355A1, “Combination therapy for hypertension” (priority 2001, published 2003)
# Marks after values point to notes of the source that are not given here.
# Tests used:
# [1] = cited from earlier work
# [2] = tested on: patients with a sitting diastolic blood pressure (SDBP) of 95-109 mm Hg; experiment: Clinical study, factorial design, randomized double-blind placebo-controlled, 8 weeks; assay type: in vivo, human; settings: for Therapeutic response rate, study participants with SDBP < 90 mm Hg / Change in SDBP / Change in SSBP: 8 weeks; for Change in SDBP / Change in SSBP: vs baseline, response surface analysis
# Description: A multi-center, randomized, double-blind, placebo-controlled, parallel groups, factorial design trial was conducted. After a 14-day (±3 days) screening/washout period during which patients were washed from ongoing antihypertensive therapy, eligible patients with a sitting diastolic blood pressure (SDBP) of 95-109 mm Hg, entered the 28 day (±3 days) single-blind placebo run-in period during which they received placebo once-daily. Patients who were not responsive to this treatment and whose SDBP was 95-109 mm Hg, were randomized into an eight-week double-blind treatment phase. Baseline measurements were taken on Study Day 0 with post-therapy assessments during the double blind period scheduled on Study Days 14, 28, 42, and 56. Laboratory tests were conducted prior to the beginning of the screening period and on study Day 0 as well as at the end of the study.
# The number of patients screened was greater than 800; 798 entered the 4-week single-blind placebo period, and 663 eligible patients were randomized into the 8-week double-blind treatment. The number in parenthesis represents the number of patients in each group available for efficacy evaluation.
# The patients were randomized into one of the above noted 12 treatment groups. Tablets of lercanidipine (5 and 10 mg) and enalapril (2.5 mg) were encapsulated in the appropriate doses, in order to assure double-blind conditions. All tablets were of commercial origin except for the 5 mg lercanidipine, which were prepared in accordance with Table 3.
# Patients were instructed to take one capsule of the study medication once daily 15 minutes before breakfast, between 6 and 10 am. All medications were to be withheld on mornings of clinic visits until after blood pressure evaluations at 22-26 hours following the previous day's dose of study medication.
# 1. Trough (Minimum) (24±2 hours post-dose) sitting diastolic blood pressure (SDBP)
# 2. Trough (24±2 hours post-dose) sitting systolic blood pressure (SSBP)
# 4. Percent of patients with SDBP<90 mm Hg
# The primary efficacy variable was the change from baseline to mean trough SDBP after 8 weeks of double-blind treatment. The analysis was performed in an “intent-to-treat” fashion, including all randomized patients who had received at least one dose of double-blind treatment, and had at least one post-baseline SDBP measurement 18-48 hours post-dose. In case of premature withdrawal from the study the last observation carried forward (LOCF) algorithm was applied (“end point analysis”).
# The overall treatment comparison was performed using an analysis of covariance (ANCOVA) with treatment and centers as main effects and baseline value as covariate.
# An additional ANOVA was performed using the factorial model in order to test for the interaction of lercanidipine dose and enalapril dose at each time-point.
# The number of patients who discontinued the study because of an adverse event is reported in parenthesis.
# [3] = tested on: conscious renal hypertensive dogs; experiment: Lercanidipine and enalapril in renal hypertensive dogs (two-kidney, two clip); assay type: in vivo, beagle dogs
# Description: Male beagle dogs, 10-12 months old and weighing between 10-11 kg, were used. All dogs were trained for several weeks, to comply unstressfully to the test environment. Chronic sustained hypertension was induced in 4 dogs by bilateral renal artery constriction, according to the Goldblatt method “two-kidney, two clip hypertension”. Briefly, under sodium pentobarbital anaesthesia (35 mg/kg i.v.) during two different surgical interventions 15 days apart from each other, in sterile conditions, both renal arteries were clipped with original renal silver clips and narrowed by about 60-70%. After two months from the last intervention, an experimental renal hypertension was produced and the animals were used for the implantation of catheter.
# Under sodium pentobarbital anaesthesia (35 mg/kg i.v.), in sterile conditions, the dogs were catheterized by inserting a sensor tipped catheter (Mikro-Tip) into the ascending aorta through the right femoral artery. The catheter was subcutaneously exteriorized at the back of the neck.
# After a week recovery time from surgery, the animals were placed in a dog restrained unit, composed by a frame and a dog sling hammock, and connected to the pressure transducers in order to monitor the arterial blood pressure.
# All the animals were alternatively treated with vehicle, lercanidipine, enalapril and the combination of lercanidipine and enalapril. The drugs were administered by oral gavage in a volume of 1 ml/kg at the following dosages:
# (2) lercanidipine (0.5 mg/kg)
# (4) lercanidipine […] enalapril (0.5 mg/kg +3 mg/kg)
# Blood pressure (systolic and diastolic) was monitored up to 6 h after the administration. Statistical analysis was performed from time 0 to time 360 min. To evaluate the statistical differences among the treatments, data were analyzed using a three-way ANOVA with repeated measures on factor time and pre-planned multiple comparisons. Statistical analysis was performed by means of GLM (general linear model procedure) with SAS software version 6.12.
# [4] = enalapril 5 mg once daily, 55 patients randomized
# [5] = enalapril 10 mg once daily, 55 patients randomized
# [6] = enalapril 3 mg/kg oral, 120 min
# [7] = enalapril 3 mg/kg oral, 150 min
# [8] = enalapril 3 mg/kg oral, 180 min
# [9] = enalapril 3 mg/kg oral, 240 min
# [10] = enalapril 3 mg/kg oral, 360 min
# [11] = lercanidipine 5 mg once daily, 54 patients randomized
# [12] = lercanidipine 10 mg once daily, 57 patients randomized
# [13] = lercanidipine 20 mg once daily, 54 patients randomized
# [14] = lercanidipine 0.5 mg/kg oral, 15 min
# [15] = lercanidipine 0.5 mg/kg oral, 30 min
# [16] = lercanidipine 0.5 mg/kg oral, 45 min
# [17] = lercanidipine 0.5 mg/kg oral, 60 min
# [18] = lercanidipine 0.5 mg/kg oral, 90 min
# [19] = lercanidipine 0.5 mg/kg oral, 120 min
# [20] = lercanidipine 0.5 mg/kg oral, 150 min
# [21] = lercanidipine 0.5 mg/kg oral, 180 min
# [22] = lercanidipine 0.5 mg/kg oral, 240 min
# [23] = lercanidipine 0.5 mg/kg oral, 360 min
# [24] = lercanidipine 0.5 mg/kg oral, Basal
smiles,measurement,setting,value
"CCOC(=O)[C@H](CCc1ccccc1)N[C@@H](C)C(=O)N1CCC[C@H]1C(=O)O [enalapril, (S)-1-[N-1-(ethoxycarbonyl)-3-phenylpropyl]-L-alanyl-L-proline]",time of peak plasma levels of enalaprilat,[1]; following oral administration of enalapril,3 to 4 h
same,"Therapeutic response rate, study participants with SDBP < 90 mm Hg",[2]; enalapril 5 mg once daily,28%
same,Change in SDBP,[2]; enalapril 5 mg once daily,−7.7
same,Change in SSBP,"[2]; enalapril 5 mg once daily, confidence interval in parentheses",−9.6 (8.1-11.2)
same,number of patients who discontinued the study because of an adverse event,[2]; [4],1
same,number of patients with any adverse events related to study drug,[2]; [4],9
same,"Therapeutic response rate, study participants with SDBP < 90 mm Hg",[2]; enalapril 10 mg once daily,43%
same,Change in SDBP,[2]; enalapril 10 mg once daily,−8.8
same,Change in SSBP,"[2]; enalapril 10 mg once daily, confidence interval in parentheses",−11.1 (9.1-13.2)
same,number of patients who discontinued the study because of an adverse event,[2]; [5],1
same,number of patients with any adverse events related to study drug,[2]; [5],12
same,DBP (diastolic blood pressure),"[3]; enalapril 3 mg/kg oral, 15 min",114.5 ± 4.9 mmHg
same,SBP (systolic blood pressure),"[3]; enalapril 3 mg/kg oral, 15 min",162.8 ± 4.8 mmHg
same,DBP (diastolic blood pressure),"[3]; enalapril 3 mg/kg oral, 30 min",114.0 ± 4.7 mmHg
same,SBP (systolic blood pressure),"[3]; enalapril 3 mg/kg oral, 30 min",160.3 ± 4.1 mmHg
same,DBP (diastolic blood pressure),"[3]; enalapril 3 mg/kg oral, 45 min",110.3 ± 4.7 mmHg
same,SBP (systolic blood pressure),"[3]; enalapril 3 mg/kg oral, 45 min",158.0 ± 5.6 mmHg
same,DBP (diastolic blood pressure),"[3]; enalapril 3 mg/kg oral, 60 min",105.3 ± 5.6 a mmHg
same,SBP (systolic blood pressure),"[3]; enalapril 3 mg/kg oral, 60 min",158.0 ± 6.4 mmHg
same,DBP (diastolic blood pressure),"[3]; enalapril 3 mg/kg oral, 90 min",107.5 ± 3.2 mmHg
same,SBP (systolic blood pressure),"[3]; enalapril 3 mg/kg oral, 90 min",159.0 ± 5.8 mmHg
same,DBP (diastolic blood pressure),[3]; [6],105.0 ± 5.3 b mmHg
same,SBP (systolic blood pressure),[3]; [6],153.5 ± 7.5 mmHg
same,DBP (diastolic blood pressure),[3]; [7],108.3 ± 4.5 a mmHg
same,SBP (systolic blood pressure),[3]; [7],158.5 ± 5.7 mmHg
same,DBP (diastolic blood pressure),[3]; [8],110.5 ± 3.6 mmHg
same,SBP (systolic blood pressure),[3]; [8],158.8 ± 5.5 mmHg
same,DBP (diastolic blood pressure),[3]; [9],116.0 ± 3.3 mmHg
same,SBP (systolic blood pressure),[3]; [9],161.3 ± 7.2 mmHg
same,DBP (diastolic blood pressure),[3]; [10],111.8 ± 4.3 mmHg
same,SBP (systolic blood pressure),[3]; [10],158.8 ± 5.9 mmHg
same,DBP (diastolic blood pressure),"[3]; enalapril 3 mg/kg oral, Basal",120.0 ± 4.2 mmHg
same,SBP (systolic blood pressure),"[3]; enalapril 3 mg/kg oral, Basal",164.8 ± 3.5 mmHg
"COC(=O)C1=C(C)NC(C)=C(C(=O)OC(C)(C)CN(C)CCC(c2ccccc2)c2ccccc2)C1c1cccc([N+](=O)[O-])c1 (stereo not shown) [lercanidipine, methyl 1,1,N-trimethyl-N-(3,3-diphenylpropyl)-2-aminoethyl 1,4-dihydro-2,6-dimethyl-4-(3-nitrophenyl)pyridine-3,5-dicarboxylate]",time of peak plasma levels,[1]; following oral dosing,2 to 3 h
same,"Therapeutic response rate, study participants with SDBP < 90 mm Hg",[2]; lercanidipine 5 mg once daily,32%
same,Change in SSBP,"[2]; lercanidipine 5 mg once daily, confidence interval in parentheses",−9.5 (7.8-11.1)
same,number of patients who discontinued the study because of an adverse event,[2]; [11],3
same,number of patients with any adverse events related to study drug,[2]; [11],8
same,"Therapeutic response rate, study participants with SDBP < 90 mm Hg",[2]; lercanidipine 10 mg once daily,40%
same,Change in SDBP,[2]; lercanidipine 10 mg once daily,−8.2
same,Change in SSBP,"[2]; lercanidipine 10 mg once daily, confidence interval in parentheses",−10.8 (9.1-12.4)
same,number of patients who discontinued the study because of an adverse event,[2]; [12],1
same,number of patients with any adverse events related to study drug,[2]; [12],10
same,"Therapeutic response rate, study participants with SDBP < 90 mm Hg",[2]; lercanidipine 20 mg once daily,59%*
same,Change in SDBP,[2]; lercanidipine 20 mg once daily,−9.9*
same,Change in SSBP,"[2]; lercanidipine 20 mg once daily, in mm Hg",−13.4* (11.1-15.6)
same,number of patients who discontinued the study because of an adverse event,[2]; [13],3
same,number of patients with any adverse events related to study drug,[2]; [13],10
same,DBP (diastolic blood pressure),[3]; [14],107.0 ± 5.8 mmHg
same,SBP (systolic blood pressure),[3]; [14],152.5 ± 6.6 mmHg
same,DBP (diastolic blood pressure),[3]; [15],95.3 ± 3.6 c mmHg
same,SBP (systolic blood pressure),[3]; [15],142.5 ± 4.8 b mmHg
same,DBP (diastolic blood pressure),[3]; [16],89.0 ± 4.8 c mmHg
same,SBP (systolic blood pressure),[3]; [16],138.3 ± 5.1 c mmHg
same,DBP (diastolic blood pressure),[3]; [17],87.5 ± 6.3 c mmHg
same,SBP (systolic blood pressure),[3]; [17],142.3 ± 7.4 a mmHg
same,DBP (diastolic blood pressure),[3]; [18],87.3 ± 5.3 c mmHg
same,SBP (systolic blood pressure),[3]; [18],138.3 ± 5.7 c mmHg
same,DBP (diastolic blood pressure),[3]; [19],93.0 ± 5.6 c mmHg
same,SBP (systolic blood pressure),[3]; [19],140.5 ± 5.9 b mmHg
same,DBP (diastolic blood pressure),[3]; [20],94.0 ± 7.2 c mmHg
same,SBP (systolic blood pressure),[3]; [20],139.3 ± 10.1 c mmHg
same,DBP (diastolic blood pressure),[3]; [21],96.8 ± 5.1 c mmHg
same,SBP (systolic blood pressure),[3]; [21],141.0 ± 7.2 b mmHg
same,DBP (diastolic blood pressure),[3]; [22],104.0 ± 5.0 a mmHg
same,SBP (systolic blood pressure),[3]; [22],144.8 ± 6.8 a mmHg
same,DBP (diastolic blood pressure),[3]; [23],108.0 ± 3.5 mmHg
same,SBP (systolic blood pressure),[3]; [23],150.0 ± 6.8 mmHg
same,DBP (diastolic blood pressure),[3]; [24],117.5 ± 5.2 mmHg
same,SBP (systolic blood pressure),[3]; [24],161.3 ± 3.8 mmHg
